# Assay results reported in paper PMC5218480 (PLoS ONE, 2017).
# Tested on: MV-4-11 cells
# Assay: Gene expression microarray analysis (Affymetrix PrimeView) and GSEA
# Format: cell-based, human
# Design: RFU PODN (11730768_x_at) / Fold change /veh PODN (11730768_x_at) / RFU LINC00158 (11744669_a_at) / Fold change /veh LINC00158 (11744669_a_at) / RFU DUSP10 (11751237_a_at) / Fold change /veh DUSP10 (11751237_a_at) / RFU ID3 (11757404_x_at) / Fold change /veh ID3 (11757404_x_at) / RFU PLEKHG5 (11737974_s_at) / Fold change /veh PLEKHG5 (11737974_s_at) / RFU LRRC4B (11730491_at) / Fold change /veh LRRC4B (11730491_at) / RFU GIMAP4 (11747438_a_at) / Fold change /veh GIMAP4 (11747438_a_at) / RFU KRT8 (11758183_x_at) / Fold change /veh KRT8 (11758183_x_at) / RFU CNN1 (11734310_a_at) / Fold change /veh CNN1 (11734310_a_at) / RFU VPS37D (11726825_at) / Fold change /veh VPS37D (11726825_at) / RFU C10orf10 (11716522_x_at) / Fold change /veh C10orf10 (11716522_x_at) / RFU KIR2DL2 /// KIR2DL4 /// KIR2DL5A /// KIR2DL5B /// KIR2DS1 /// KIR2DS2 /// KIR2DS3 /// KIR2DS4 /// KIR3DL3 /// KIR3DL3 /// KIR3DS1 (11738374_at) / Fold change /veh KIR2DL2 /// KIR2DL4 /// KIR2DL5A /// KIR2DL5B /// KIR2DS1 /// KIR2DS2 /// KIR2DS3 /// KIR2DS4 /// KIR3DL3 /// KIR3DL3 /// KIR3DS1 (11738374_at) / RFU C1QL1 (11718748_at) / Fold change /veh C1QL1 (11718748_at) / RFU TMPRSS4 (11747572_a_at) / Fold change /veh TMPRSS4 (11747572_a_at) / RFU HAMP (11756126_x_at) / Fold change /veh HAMP (11756126_x_at) / RFU RNFT2 (11725882_a_at) / Fold change /veh RNFT2 (11725882_a_at) / RFU NR4A2 (11747474_a_at) / Fold change /veh NR4A2 (11747474_a_at) / RFU ABCC12 (11746883_a_at) / Fold change /veh ABCC12 (11746883_a_at) / RFU TMEM136 (11760407_x_at) / Fold change /veh TMEM136 (11760407_x_at) / RFU CLDN22 /// WWC2 (11732394_at) / Fold change /veh CLDN22 /// WWC2 (11732394_at) / RFU HLA-DPB1 (11760878_x_at) / Fold change /veh HLA-DPB1 (11760878_x_at) / RFU SPINT1 (11716480_a_at) / Fold change /veh SPINT1 (11716480_a_at) / RFU GAP43 (11754022_s_at) / Fold change /veh GAP43 (11754022_s_at) / RFU A4GNT (11735810_at) / Fold change /veh A4GNT (11735810_at) / RFU PRB3 (11715151_x_at) / Fold change /veh PRB3 (11715151_x_at) / RFU TUBB4B (11761932_at) / Fold change /veh TUBB4B (11761932_at) / RFU CAPN14 (11732068_a_at) / Fold change /veh CAPN14 (11732068_a_at) / RFU TMCC2 (11721928_a_at) / Fold change /veh TMCC2 (11721928_a_at) / RFU IRGQ (11745062_a_at) / Fold change /veh IRGQ (11745062_a_at) / RFU FAM174B (11720279_a_at) / Fold change /veh FAM174B (11720279_a_at) / RFU TMPRSS4 (11748680_a_at) / Fold change /veh TMPRSS4 (11748680_a_at) / RFU FAM212B (11763350_a_at) / Fold change /veh FAM212B (11763350_a_at) / RFU PLEKHG5 (11743358_a_at) / Fold change /veh PLEKHG5 (11743358_a_at) / RFU ZSCAN30 (11745921_a_at) / Fold change /veh ZSCAN30 (11745921_a_at) / RFU CMKLR1 (11741424_a_at) / Fold change /veh CMKLR1 (11741424_a_at) / RFU LOC101060620 /// MAPK8IP1 (11723275_at) / Fold change /veh LOC101060620 /// MAPK8IP1 (11723275_at) / RFU SPTSSB (11747773_x_at) / Fold change /veh SPTSSB (11747773_x_at) / RFU PRSS12 (11739890_at) / Fold change /veh PRSS12 (11739890_at) / RFU BIN1 (11741810_x_at) / Fold change /veh BIN1 (11741810_x_at) / RFU WNT11 (11732464_a_at) / Fold change /veh WNT11 (11732464_a_at) / RFU C10orf10 (11716521_a_at) / Fold change /veh C10orf10 (11716521_a_at) / RFU C5orf56 (11738089_at) / Fold change /veh C5orf56 (11738089_at) / RFU CYB561 (11721691_x_at) / Fold change /veh CYB561 (11721691_x_at) / RFU ANKRD19P (11752326_a_at) / Fold change /veh ANKRD19P (11752326_a_at) / RFU OR2T12 /// OR2T33 /// OR2T8 (11738714_s_at) / Fold change /veh OR2T12 /// OR2T33 /// OR2T8 (11738714_s_at) / RFU VCAN (11748164_a_at) / Fold change /veh VCAN (11748164_a_at) / RFU JSRP1 (11732532_at) / Fold change /veh JSRP1 (11732532_at) / RFU KRTAP10-11 (11738290_x_at) / Fold change /veh KRTAP10-11 (11738290_x_at) / RFU MYO3A (11730013_a_at) / Fold change /veh MYO3A (11730013_a_at) / RFU EBF3 (11725865_a_at) / Fold change /veh EBF3 (11725865_a_at) / RFU CAMK2N1 (11719241_x_at) / Fold change /veh CAMK2N1 (11719241_x_at) / RFU C5orf56 (11738088_a_at) / Fold change /veh C5orf56 (11738088_a_at) / RFU OLFML3 (11715873_a_at) / Fold change /veh OLFML3 (11715873_a_at) / RFU LOC100653217 /// NTM (11731650_a_at) / Fold change /veh LOC100653217 /// NTM (11731650_a_at) / RFU MAPK11 (11762145_a_at) / Fold change /veh MAPK11 (11762145_a_at) / RFU FIZ1 (11724087_x_at) / Fold change /veh FIZ1 (11724087_x_at) / RFU OASL (11726364_x_at) / Fold change /veh OASL (11726364_x_at) / RFU SOX15 (11748057_x_at) / Fold change /veh SOX15 (11748057_x_at) / RFU CD79A (11719716_a_at) / Fold change /veh CD79A (11719716_a_at) / RFU HIST1H1D (11736915_at) / Fold change /veh HIST1H1D (11736915_at) / RFU CASKIN2 (11723855_a_at) / Fold change /veh CASKIN2 (11723855_a_at) / RFU LOC730098 (11760151_x_at) / Fold change /veh LOC730098 (11760151_x_at) / RFU OR4N2 (11742367_at) / Fold change /veh OR4N2 (11742367_at) / RFU PRRT2 (11749266_a_at) / Fold change /veh PRRT2 (11749266_a_at) / RFU SNX32 (11753110_a_at) / Fold change /veh SNX32 (11753110_a_at) / RFU CDHR5 (11726645_a_at) / Fold change /veh CDHR5 (11726645_a_at) / RFU RCAN1 (11760418_a_at) / Fold change /veh RCAN1 (11760418_a_at) / RFU FAM167A (11723789_a_at) / Fold change /veh FAM167A (11723789_a_at) / RFU FAM26E (11764081_at) / Fold change /veh FAM26E (11764081_at) / RFU ISYNA1 (11749810_s_at) / Fold change /veh ISYNA1 (11749810_s_at) / RFU ACY1 (11761880_at) / Fold change /veh ACY1 (11761880_at) / RFU 11764098_at / Fold change /veh 11764098_at / RFU SAMD14 (11745864_x_at) / Fold change /veh SAMD14 (11745864_x_at) / RFU NPB (11741838_a_at) / Fold change /veh NPB (11741838_a_at) / RFU TMPRSS6 (11731388_a_at) / Fold change /veh TMPRSS6 (11731388_a_at) / RFU KRTAP10-2 (11738614_at) / Fold change /veh KRTAP10-2 (11738614_at) / RFU ARHGAP8 /// PRR5-ARHGAP8 (11727945_x_at) / Fold change /veh ARHGAP8 /// PRR5-ARHGAP8 (11727945_x_at) / RFU KRTAP5-7 /// NADSYN1 (11734609_at) / Fold change /veh KRTAP5-7 /// NADSYN1 (11734609_at) / RFU RASL12 (11751679_a_at) / Fold change /veh RASL12 (11751679_a_at) / RFU CDKN2B (11736163_a_at) / Fold change /veh CDKN2B (11736163_a_at) / RFU PRF1 (11729649_at) / Fold change /veh PRF1 (11729649_at) / RFU, ZNF638 /// ZNF638-IT1 / Fold change vs veh, ZNF638 /// ZNF638-IT1 / RFU, PANK3 / Fold change vs veh, PANK3 / RFU, SH3YL1 / Fold change vs veh, SH3YL1 / RFU, ZEB2 / Fold change vs veh, ZEB2 / RFU, NRIP1 / Fold change vs veh, NRIP1 / RFU, PTTG1IP / Fold change vs veh, PTTG1IP / RFU, CAPN2 / Fold change vs veh, CAPN2 / RFU, MED14 / Fold change vs veh, MED14 / RFU, SNORA58 / Fold change vs veh, SNORA58 / RFU, C1orf63 / Fold change vs veh, C1orf63 / RFU, LRRFIP1 / Fold change vs veh, LRRFIP1 / RFU, NDUFAF7 / Fold change vs veh, NDUFAF7 / RFU, SLC12A2 / Fold change vs veh, SLC12A2 / RFU, IBTK / Fold change vs veh, IBTK / RFU, ESF1 / Fold change vs veh, ESF1 / Fold change vs veh, TMEM50B / RFU, TAOK1 / Fold change vs veh, TAOK1 / RFU, ACBD3 / Fold change vs veh, ACBD3 / RFU, TMA16 / Fold change vs veh, TMA16 / RFU, RWDD3 / Fold change vs veh, RWDD3 / RFU, BCAT1 / Fold change vs veh, BCAT1 / RFU, EDEM3 / Fold change vs veh, EDEM3 / RFU, TMEM33 / Fold change vs veh, TMEM33 / RFU, WDR75 / Fold change vs veh, WDR75 / RFU, AHCTF1 / Fold change vs veh, AHCTF1 / RFU, TFRC / Fold change vs veh, TFRC / RFU, ZDHHC17 / Fold change vs veh, ZDHHC17 / RFU, NOM1 / Fold change vs veh, NOM1 / RFU, ARL8B / Fold change vs veh, ARL8B / RFU, ZBTB11 / Fold change vs veh, ZBTB11 / RFU, TAMM41 / Fold change vs veh, TAMM41 / RFU, KIAA1704 /// LOC100996395 / Fold change vs veh, KIAA1704 /// LOC100996395 / RFU, ING1 / Fold change vs veh, ING1 / RFU, TRMT61B / Fold change vs veh, TRMT61B / RFU, FUBP3 / Fold change vs veh, FUBP3 / RFU, TP53 / Fold change vs veh, TP53 / RFU, TNKS2 / Fold change vs veh, TNKS2 / RFU, ZFP14 / Fold change vs veh, ZFP14 / RFU, ACTR2 / Fold change vs veh, ACTR2 / RFU, PPP3R1 / Fold change vs veh, PPP3R1 / RFU, PIK3R1 / Fold change vs veh, PIK3R1 / RFU, HNRNPA1 / Fold change vs veh, HNRNPA1 / RFU, RNF170 / Fold change vs veh, RNF170 / RFU, ZNF28 / Fold change vs veh, ZNF28 / RFU, RNGTT / Fold change vs veh, RNGTT / RFU, OGT / Fold change vs veh, OGT / RFU, BRD1 / Fold change vs veh, BRD1 / RFU, MARS / Fold change vs veh, MARS / RFU, ZNF655 / Fold change vs veh, ZNF655 / RFU, FAHD1 / Fold change vs veh, FAHD1 / RFU, BDP1 / Fold change vs veh, BDP1 / RFU, LRRCC1 / Fold change vs veh, LRRCC1 / RFU, ARID1A / Fold change vs veh, ARID1A / RFU, ZNF146 / Fold change vs veh, ZNF146 / RFU, ZNF330 / Fold change vs veh, ZNF330 / RFU, GPN3 / Fold change vs veh, GPN3 / RFU, C9orf123 / Fold change vs veh, C9orf123 / RFU, N4BP2L2 / Fold change vs veh, N4BP2L2 / RFU, ARFIP1 / Fold change vs veh, ARFIP1 / RFU, FAM179B / Fold change vs veh, FAM179B / RFU, BCL10 / Fold change vs veh, BCL10 / RFU, UHRF1BP1L / Fold change vs veh, UHRF1BP1L / RFU, BET1 / Fold change vs veh, BET1 / RFU, CNOT2 / Fold change vs veh, CNOT2 / RFU, ZNF268 / Fold change vs veh, ZNF268 / Fold change vs veh, ZNF507 / RFU, DGCR2 / Fold change vs veh, DGCR2 / RFU, WDSUB1 / Fold change vs veh, WDSUB1 / Fold change vs veh, HSP90B1 /// MIR3652 / RFU, ADSS / Fold change vs veh, ADSS / RFU, GK / Fold change vs veh, GK / RFU, ZNF148 / Fold change vs veh, ZNF148 / RFU, TAF9 / Fold change vs veh, TAF9 / RFU, SLC1A5 / Fold change vs veh, SLC1A5 / RFU, SLMO2 / Fold change vs veh, SLMO2 / RFU, ABCC4 / Fold change vs veh, ABCC4 / RFU, LOC101060439 /// RAP1B / Fold change vs veh, LOC101060439 /// RAP1B / RFU, RFX7 / Fold change vs veh, RFX7 / RFU, GTPBP10 / Fold change vs veh, GTPBP10 / RFU, CNEP1R1 / Fold change vs veh, CNEP1R1 / RFU, BIVM-ERCC5 /// ERCC5 / Fold change vs veh, BIVM-ERCC5 /// ERCC5 / RFU, ILF3 / Fold change vs veh, ILF3 / RFU 11762660_at / Fold change /veh 11762660_at / RFU VCAN (11757783_s_at) / Fold change /veh VCAN (11757783_s_at) / RFU DDX43 (11728927_at) / Fold change /veh DDX43 (11728927_at) / RFU KRT8 (11758188_x_at) / Fold change /veh KRT8 (11758188_x_at) / RFU NKD1 (11759106_at) / Fold change /veh NKD1 (11759106_at) / RFU SRD5A1 (11742802_a_at) / Fold change /veh SRD5A1 (11742802_a_at) / RFU TPSAB1 /// TPSB2 (11721975_s_at) / Fold change /veh TPSAB1 /// TPSB2 (11721975_s_at) / RFU GSTM3 (11746129_a_at) / Fold change /veh GSTM3 (11746129_a_at) / RFU IL23R (11737362_x_at) / Fold change /veh IL23R (11737362_x_at) / RFU TMEM51 (11727254_a_at) / Fold change /veh TMEM51 (11727254_a_at) / RFU PIWIL2 (11732686_x_at) / Fold change /veh PIWIL2 (11732686_x_at) / RFU ORM1 (11744905_x_at) / Fold change /veh ORM1 (11744905_x_at) / RFU CCDC152 (11743942_at) / Fold change /veh CCDC152 (11743942_at) / RFU ECM1 (11717891_a_at) / Fold change /veh ECM1 (11717891_a_at) / RFU IL23R (11748794_a_at) / Fold change /veh IL23R (11748794_a_at) / RFU TNFAIP8L3 (11732012_x_at) / Fold change /veh TNFAIP8L3 (11732012_x_at) / RFU MBOAT4 (11741988_at) / Fold change /veh MBOAT4 (11741988_at) / RFU 11764193_at / Fold change /veh 11764193_at / RFU TMEM53 (11763286_at) / Fold change /veh TMEM53 (11763286_at) / RFU MAGEB2 (11727129_at) / Fold change /veh MAGEB2 (11727129_at) / RFU TMEM200A (11744735_a_at) / Fold change /veh TMEM200A (11744735_a_at) / RFU CCDC152 (11751479_a_at) / Fold change /veh CCDC152 (11751479_a_at) / RFU FAM211A (11726209_a_at) / Fold change /veh FAM211A (11726209_a_at) / RFU RGS16 (11746705_a_at) / Fold change /veh RGS16 (11746705_a_at) / RFU VCAN (11755009_s_at) / Fold change /veh VCAN (11755009_s_at) / RFU RHOB (11743442_s_at) / Fold change /veh RHOB (11743442_s_at) / RFU RGS16 (11720943_a_at) / Fold change /veh RGS16 (11720943_a_at) / RFU RGS16 (11720944_at) / Fold change /veh RGS16 (11720944_at) / RFU, VPS4B / Fold change vs veh, VPS4B / RFU, CREB1 / Fold change vs veh, CREB1 / RFU, DNAJC13 / Fold change vs veh, DNAJC13 / RFU, GNAQ / Fold change vs veh, GNAQ / RFU, CDK5R1 / Fold change vs veh, CDK5R1 / RFU, ZRANB3 / Fold change vs veh, ZRANB3 / RFU, CUL4A / Fold change vs veh, CUL4A / RFU, CCNY / Fold change vs veh, CCNY / RFU, UFL1 / Fold change vs veh, UFL1 / RFU, COG3 / Fold change vs veh, COG3 / RFU, DIAPH2 / Fold change vs veh, DIAPH2 / RFU, SKA2 / Fold change vs veh, SKA2 / RFU, AFF3 / Fold change vs veh, AFF3 / RFU, LMF1 / Fold change vs veh, LMF1 / RFU, IPO11 / Fold change vs veh, IPO11 / RFU, DFFB / Fold change vs veh, DFFB / RFU, FOXP1 / Fold change vs veh, FOXP1 / RFU, CARD8 / Fold change vs veh, CARD8 / RFU, STRN3 / Fold change vs veh, STRN3 / RFU, ADK / Fold change vs veh, ADK / RFU, RASSF2 / Fold change vs veh, RASSF2 / RFU, WIPF1 / Fold change vs veh, WIPF1 / RFU, LARP1B / Fold change vs veh, LARP1B / RFU, RASA1 / Fold change vs veh, RASA1 / RFU, RB1 / Fold change vs veh, RB1 / RFU, PPFIA1 / Fold change vs veh, PPFIA1 / RFU, MAT2A / Fold change vs veh, MAT2A / RFU, CCT5 / Fold change vs veh, CCT5 / RFU, WDR92 / Fold change vs veh, WDR92 / RFU, CUX1 / Fold change vs veh, CUX1 / RFU, TTC7A / Fold change vs veh, TTC7A / RFU, TMEM135 / Fold change vs veh, TMEM135 / RFU, DEPTOR / Fold change vs veh, DEPTOR / RFU, CPM / Fold change vs veh, CPM / RFU, DNAJB6 / Fold change vs veh, DNAJB6 / RFU, CACNA2D3 / Fold change vs veh, CACNA2D3 / RFU, DTX4 / Fold change vs veh, DTX4 / RFU, TFCP2 / Fold change vs veh, TFCP2 / RFU, GMCL1 /// GMCL1P1 / Fold change vs veh, GMCL1 /// GMCL1P1 / RFU, AEBP2 / Fold change vs veh, AEBP2 / RFU, SNHG1 /// SNORD22 /// SNORD25 /// SNORD26 /// SNORD27 /// SNORD28 /// SNORD29 /// SNORD31 / Fold change vs veh, SNHG1 /// SNORD22 /// SNORD25 /// SNORD26 /// SNORD27 /// SNORD28 /// SNORD29 /// SNORD31 / Fold change (Aza/veh), C12orf56 (ProbeSet 11735607_a_at) / Fold change (ACY-1035/veh), C12orf56 (ProbeSet 11735607_a_at) / Fold change (Aza/veh), FGFR1OP (ProbeSet 11751329_s_at) / Fold change (ACY-1035/veh), FGFR1OP (ProbeSet 11751329_s_at) / Fold change (Aza/veh), VPS36 (ProbeSet 11739960_a_at) / Fold change (ACY-1035/veh), VPS36 (ProbeSet 11739960_a_at) / RFU SYPL1 (11715823_x_at) / Fold change /veh SYPL1 (11715823_x_at) / RFU IGFBP7 (11715501_s_at) / Fold change /veh IGFBP7 (11715501_s_at) / RFU REEP3 (11722064_at) / Fold change /veh REEP3 (11722064_at) / RFU IGLL1 (11728026_x_at) / Fold change /veh IGLL1 (11728026_x_at): dose or concentration left out as unconfirmed
# Details: MV-4-11 cells, 48 hours
structure (smiles),measurement,value
Nc1ncn([C@@H]2O[C@H](CO)[C@@H](O)[C@H]2O)c(=O)n1 [azacitidine],RFU CAMK2N1 (11719241_x_at),56.90 RFU
